Holding throughout (assay type): in vivo
The test system of assay [1] is Beet Armyworm (Spodoptera exigua, LAPHEG). In words: Bioassays on Beet Armyworm (BAW), 128-well diet tray assay. Particulars: Spodoptera exigua. The method, boiled down:
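Percent larval mortality, averaged across eight wells, scored after five to seven days at 25° C. under 14:10 light-dark. Each well held one to five second instars feeding on diet dosed at 50 μg/cm^2 with compound from 90:10 acetone-water, solvent dried off.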

Assay [2] has as its system Yellow Fever Mosquito (Aedes aegypti, AEDSAE). Conditions: for YFM rating: Table ABC / ABC-DP rating. The method, boiled down: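 Mortality after 3 days at room temperature is the read-out, scored well by well and converted to a rating. Test molecules came from 4000 ppm stocks in DMSO, further diluted in 90:10 water/acetone, and were exposed to roughly 1-day-old larvae suspended in liver-powder water.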

Assay [3] concerns Cabbage Looper (Trichoplusia ni, TRIPNI). In words: Bioassays on Cabbage Looper (CL), 128-well diet tray assay. Conditions: Trichoplusia ni. The method, boiled down:
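Activity is mean percent mortality over eight wells of second-instar larvae exposed to diet treated at 50 μg/cm^2 for 5–7 days at 25° C.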

The mark [4] stands for this setting: Table ABC: Biological Results, species BAW, read-out: BAW.
The mark [5] stands for this setting: Table ABC: Biological Results, species YFM.
The mark [6] stands for this setting: Table ABC: Biological Results, species CL, read-out: CL.
Setting [7] is: Beet Armyworm, Table ABC / ABC-DP rating, read-out: BAW rating.
Setting [8] is: Cabbage Looper, Table ABC / ABC-DP rating, read-out: CL rating.
Setting [9] is: Beet Armyworm, rating class, read-out: BAW.
[10] abbreviates: Yellow Fever Mosquito, rating class.
Where [11] appears, read: Cabbage Looper, rating class, read-out: CL.

Like-named read-outs stand apart in the source and are kept apart here.

As to `O=C(Nc1ccc(F)cc1F)c1cc(NC(=O)[C@H]2[C@H](c3cccc(I)c3)C2(Cl)Cl)ccc1Cl` (relative stereo) [F1088, trans-2-Chloro-5-(2,2-dichloro-3-(3-iodophenyl)cyclopropane-1-carboxamido)-N-(2,4-difluorophenyl)benzamide], the pest or weed control at 50 µg/cm2 in assay [1] (setting [4]) and in assay [3] (setting [6]) was 50 to 100% in each case. Also, in assay [2] (setting [5]), the YFM entry is listed as “A (80–100)”.

In the case of `O=C(Nc1ccc(F)c(NCCF)c1F)c1cc(NC(=O)[C@H]2[C@H](c3ccc(F)c(C(F)(F)F)c3)C2(Cl)Cl)ccc1Cl` [F1826, 2-Chloro-5-((1R,3R)-2,2-dichloro-3-(4-fluoro-3-(trifluoromethyl)phenyl)cyclopropane-1-carboxamido)-N-(2,4-difluoro-3-((2-fluoroethyl)amino)phenyl)benzamide], the pest or weed control at 50 µg/cm2 in assay [1] (setting [7]) and in assay [3] (setting [8]) was 50 to 100% in each case. Besides, the YFM rating result in assay [2] (Yellow Fever Mosquito) is reported as “A (80–100)”.

For `O=C(CCCNC(=O)c1cc(NC(=O)[C@H]2[C@H](c3cc(Cl)cc(Cl)c3)C2(Cl)Cl)ccc1Cl)NCCC(F)(F)F` (relative stereo) [F2093, trans-2-Chloro-5-(2,2-dichloro-3-(3,5-dichlorophenyl)cyclopropanecarboxamido)-N-(4-oxo-4-(3,3,3-trifluoropropylamino)butyl)benzamide], the pest or weed control at 50 µg/cm2 in assay [1] (setting [7]) and in assay [3] (setting [8]) was 50 to 100% throughout. In addition, in assay [2] (Yellow Fever Mosquito), the YFM rating entry was “B (More than 0 – Less than 80)”.

With `Cc1cc(NCc2ccc(O)cc2)ccc1NC(=O)c1cc(NC(=O)[C@H]2[C@H](c3cc(Cl)cc(Cl)c3)C2(Cl)Cl)ccc1Cl` (relative stereo) [F1353, trans-2-Chloro-5-(2,2-dichloro-3-(3,5-dichlorophenyl)cyclopropane-1-carboxamido)-N-(4-((4-hydroxybenzyl)amino)-2-methylphenyl)benzamide], the pest or weed control at 50 µg/cm2 in assay [1] (setting [4]) and in assay [3] (setting [6]) was 50 to 100% each time. Besides, in assay [2] (setting [5]), the YFM result is on record as “A (80–100)”.

As to `O=C(Nc1cc(Cl)c(NC(=O)C(F)(F)F)c(Cl)c1)c1cc(NC(=O)[C@H]2[C@H](c3ccc(F)c(Cl)c3)C2(Cl)Cl)ccc1Cl` (relative stereo) [F1368, trans-2-Chloro-5-(2,2-dichloro-3-(3-chloro-4-fluorophenyl)cyclopropane-1-carboxamido)-N-(3,5-dichloro-4-(2,2,2-trifluoroacetamido)phenyl)benzamide], the pest or weed control at 50 µg/cm2 in assay [1] (setting [4]) and in assay [3] (setting [6]) was 50 to 100% in each case. Also, in assay [2] (setting [5]), the YFM result was “A (80–100)”.

Turning to `NCCCC(=O)Nc1c(F)ccc(NC(=O)c2cc(NC(=O)[C@H]3[C@H](c4ccc(Cl)c(Cl)c4)C3(Cl)Cl)ccc2Cl)c1F` [F1201, N-(3-(4-Aminobutanamido)-2,4-difluorophenyl)-2-chloro-5-((1R,3R)-2,2-dichloro-3-(3,4-dichlorophenyl)cyclopropane-1-carboxamido)benzamide], the pest or weed control at 50 µg/cm2 in assay [1] (setting [4]) and in assay [3] (setting [6]) was 50 to 100% throughout. Besides, the YFM result in assay [2] (setting [5]) is “A (80–100)”.

Turning to `O=C(Nc1ccc(F)c(NC(=O)C(F)F)c1F)c1cc(NC(=O)[C@H]2[C@H](c3ccc(Cl)c(Cl)c3)C2(Cl)Cl)cc(F)c1F` [F1443, 5-((1R,3R)-2,2-Dichloro-3-(3,4-dichlorophenyl)cyclopropane-1-carboxamido)-N-(3-(2,2-difluoroacetamido)-2,4-difluorophenyl)-2,3-difluorobenzamide], the pest or weed control at 50 µg/cm2 in assay [1] (setting [9]) and in assay [3] (setting [11]) was 50 to 100% throughout. For the same molecule, the YFM entry in assay [2] (setting [10]) is “A (80–100)”.

Turning to `CCOC(C)(C)C(=O)Nc1c(F)ccc(NC(=O)c2cc(NC(=O)[C@H]3[C@H](c4ccc(Cl)c(Cl)c4)C3(Cl)Cl)ccc2Cl)c1F` [F1605, 2-Chloro-5-((1R,3R)-2,2-dichloro-3-(3,4-dichlorophenyl)cyclopropane-1-carboxamido)-N-(3-(2-ethoxy-2-methylpropanamido)-2,4-difluorophenyl)benzamide], the pest or weed control at 50 µg/cm2 in assay [1] (setting [9]) and in assay [3] (setting [11]) was 50 to 100% in each case. In addition, the YFM entry in assay [2] (setting [10]) is given as “A (80–100)”.

On to `O=C(NCC(F)(F)C(F)(F)F)c1cc(NC(=O)[C@H]2[C@H](c3ccc(F)c(Cl)c3)C2(Cl)Cl)cc(C(F)(F)F)c1Cl` (relative stereo) [F2056, trans-2-Chloro-5-(2,2-dichloro-3-(3-chloro-4-fluorophenyl)cyclopropane-1-carboxamido)-N-(2,2,3,3,3-pentafluoropropyl)-3-(trifluoromethyl)benzamide], for which the pest or weed control at 50 µg/cm2 in assay [1] (setting [7]) and in assay [3] (setting [8]) was 50 to 100% throughout. In addition, the YFM rating entry in assay [2] (Yellow Fever Mosquito) is “A (80–100)”.

`CCC1CCC(C(=O)Nc2c(F)ccc(NC(=O)c3cc(NC(=O)[C@H]4[C@H](c5ccc(F)c(C(F)(F)F)c5)C4(Cl)Cl)ccc3Cl)c2F)O1` (stereo partly drawn) [F1626, N-(3-(2-Chloro-5-((1R,3R)-2,2-dichloro-3-(4-fluoro-3-(trifluoromethyl)phenyl)cyclopropane-1-carboxamido)benzamido)-2,6-difluorophenyl)-5-ethyltetrahydrofuran-2-carboxamide]: the pest or weed control at 50 µg/cm2 in assay [1] (setting [9]) and in assay [3] (setting [11]) was 50 to 100% each time. The YFM entry in assay [2] (setting [10]) is “A (80–100)”.

As to `O=C(Nc1ccc(F)c(NC(=O)C2CCCO2)c1F)c1cc(NC(=O)[C@H]2[C@H](c3ccc(F)c(C(F)(F)F)c3)C2(Cl)Cl)ccc1Cl` (stereo partly drawn) [F1521, N-(3-(2-Chloro-5-((1R,3R)-2,2-dichloro-3-(4-fluoro-3-(trifluoromethyl)phenyl)cyclopropane-1-carboxamido)benzamido)-2,6-difluorophenyl)tetrahydrofuran-2-carboxamide], the pest or weed control at 50 µg/cm2 in assay [1] (setting [9]) and in assay [3] (setting [11]) was 50 to 100% each time. Moreover, in assay [2] (setting [10]), the YFM result was “A (80–100)”.

As for `O=C(Nc1ccc(F)c(NC(=O)C(Br)Br)c1F)c1cc(NC(=O)[C@H]2[C@H](c3ccc(F)c(C(F)(F)F)c3)C2(Cl)Cl)ccc1Cl` [F1355, 2-Chloro-N-(3-(2,2-dibromoacetamido)-2,4-difluorophenyl)-5-((1R,3R)-2,2-dichloro-3-(4-fluoro-3-(trifluoromethyl)phenyl)cyclopropane-1-carboxamido)benzamide], the pest or weed control at 50 µg/cm2 in assay [1] (setting [4]) and in assay [3] (setting [6]) was 50 to 100% throughout. Further, the YFM result in assay [2] (setting [5]) is “A (80–100)”.

For `O=C(Nc1ccc(F)c(NC(=O)C2CC2)c1F)c1cc(NC(=O)[C@H]2[C@H](c3ccc(F)c(C(F)(F)F)c3)C2(Cl)Cl)ccc1Cl` [F1264, 2-Chloro-N-(3-(cyclopropanecarboxamido)-2,4-difluorophenyl)-5-((1R,3R)-2,2-dichloro-3-(4-fluoro-3-(trifluoromethyl)phenyl)cyclopropane-1-carboxamido)benzamide], the pest or weed control at 50 µg/cm2 in assay [1] (setting [4]) and in assay [3] (setting [6]) was 50 to 100% each time. Moreover, the YFM entry in assay [2] (setting [5]) is given as “A (80–100)”.

As to `O=C(Nc1ccc(F)c(NC(=O)C(F)F)c1F)c1cc(NC(=O)[C@H]2[C@H](c3ccc(Cl)c(Br)c3)C2(Cl)Cl)ccc1Cl` (relative stereo) [F1359, trans-5-(3-(3-Bromo-4-chlorophenyl)-2,2-dichlorocyclopropane-1-carboxamido)-2-chloro-N-(3-(2,2-difluoroacetamido)-2,4-difluorophenyl)benzamide], the pest or weed control at 50 µg/cm2 in assay [1] (setting [4]) and in assay [3] (setting [6]) was 50 to 100% throughout. The YFM result in assay [2] (setting [5]) is on record as “A (80–100)”.

For `CC(=O)Nc1ccc(NC(=O)c2cc(NC(=O)[C@H]3[C@H](c4ccc(Cl)c(Cl)c4)C3(Cl)Cl)ccc2Cl)c(C)c1` (relative stereo) [F1059, trans-N-(4-Acetamido-2-methylphenyl)-2-chloro-5-(2,2-dichloro-3-(3,4-dichlorophenyl)cyclopropane-1-carboxamido)benzamide], the pest or weed control at 50 µg/cm2 in assay [1] (setting [4]) and in assay [3] (setting [6]) was 50 to 100% in each case. Moreover, the YFM entry in assay [2] (setting [5]) was “A (80–100)”.

`O=C(NCCCNC(=O)C(F)(F)F)c1cc(NC(=O)[C@H]2[C@H](c3cc(Cl)cc(Cl)c3)C2(Cl)Cl)ccc1Cl` (relative stereo) [F2094, trans-2-Chloro-5-(2,2-dichloro-3-(3,5-dichlorophenyl)cyclopropane-1-carboxamido)-N-(3-(2,2,2-trifluoroacetamido)propyl)benzamide]: the pest or weed control at 50 µg/cm2 in assay [1] (setting [7]) and in assay [3] (setting [8]) was 50 to 100% in each case. The YFM rating entry in assay [2] (Yellow Fever Mosquito) is “B (More than 0 – Less than 80)”.

The values are drawn from patent publication US20250228239A1, “MOLECULES HAVING PESTICIDAL UTILITY, AND INTERMEDIATES, COMPOSITIONS, AND PROCESSES, RELATED THERETO” (priority 2024, published 2025).
